In brackets after ≈: the same amount, converted by molar mass. Some results are limits rather than exact numbers.

What all share (assay type): cell-based
One experiment concerns S. aureus. Put plainly: MIC assay, S. aureus.
A further experiment has as its system S. pneumo. Put plainly: MIC assay, S. pneumo.
Another experiment deals with E. faecalis. Kind of experiment: MIC assay, E. faecalis.
The subject of the next experiment is H. flu. Kind of experiment: MIC assay, H. flu.
For the next experiment, the system named is E. coli. Put plainly: MIC assay, E. coli.

For `CO[C@H]1/C=C/O[C@@]2(C)Oc3c(C)c(O)c4c(=O)c(c5sc6cc(N7C[C@@H](C)N[C@@H](C)C7)ccc6nc-5c4c3C2=O)NC(=O)/C(C)=C\C=C\[C@H](C)[C@H](O)[C@@H](C)[C@@H](O)[C@@H](C)[C@H](OC(C)=O)[C@@H]1C` [Compound 64, 5′-[(3R,5S)-3,5-dimethyl-1-piperazinyl]benzthiazinorifamycin], the “MIC (μg/mL) S. aureus” value in the experiment with S. aureus worked out at 0.004 µg/mL (≈ 0.00438 µM). For the same compound, in the experiment on S. pneumo., the “MIC (μg/mL) S. pneumo.” value was 0.00012 µg/mL (≈ 0.000131 µM). Moreover, the “MIC (μg/mL) E. faecalis” value against E. faecalis turned out to be 0.12 µg/mL (≈ 0.131 µM). In addition, the “MIC (μg/mL) H. flu” value in the experiment with H. flu is 0.25 µg/mL (≈ 0.274 µM). For the same compound, in the experiment on E. coli, the “MIC (μg/mL) E. coli” value was found to be 4 µg/mL (≈ 4.38 µM).

Consider `CO[C@H]1/C=C/O[C@@]2(C)Oc3c(C)c(O)c4c(=O)c(c5oc6cc(N7CCC(CCO)CC7)cc(O)c6nc-5c4c3C2=O)NC(=O)/C(C)=C\C=C\[C@H](C)[C@H](O)[C@@H](C)[C@@H](O)[C@@H](C)[C@H](O)[C@@H]1C` [Compound 66, 25-O-deacetyl-3′-hydroxy-5′-[4-(2-hydroxyethyl)-1-piperidinyl]benzoxazinorifamycin], for which the “MIC (μg/mL) S. aureus” value with S. aureus amounted to 0.004 µg/mL (≈ 0.00451 µM). Besides, the “MIC (μg/mL) S. pneumo.” value against S. pneumo. amounted to 0.0005 µg/mL (≈ 0.000564 µM). Also, the “MIC (μg/mL) E. faecalis” value against E. faecalis worked out at 0.12 µg/mL (≈ 0.135 µM). In addition, the “MIC (μg/mL) H. flu” value against H. flu was determined as 0.12 µg/mL (≈ 0.135 µM). Besides, the “MIC (μg/mL) E. coli” value against E. coli came to 4 µg/mL (≈ 4.51 µM).

For the compound `CO[C@H]1/C=C/O[C@@]2(C)Oc3c(C)c(O)c4c(=O)c(c5sc6cc(N7C[C@@H](C)N(CC8CC8)C[C@@H]7C)ccc6nc-5c4c3C2=O)NC(=O)/C(C)=C\C=C\[C@H](C)[C@H](O)[C@@H](C)[C@@H](O)[C@@H](C)[C@H](OC(C)=O)[C@@H]1C` [Compound 68, 5′-[(2S,5R)-4-(cyclopropylmethyl)-2,5-dimethylpiperazinyl]benzthiazinorifamycin], in the experiment on S. aureus, the “MIC (μg/mL) S. aureus” value worked out at 0.06 µg/mL (≈ 0.062 µM). In addition, in the experiment on S. pneumo., the “MIC (μg/mL) S. pneumo.” value turned out to be 0.0005 µg/mL (≈ 0.000517 µM). For the same compound, the “MIC (μg/mL) E. faecalis” value against E. faecalis was determined as 2 µg/mL (≈ 2.07 µM). Moreover, the “MIC (μg/mL) H. flu” value in the experiment on H. flu amounted to 0.5 µg/mL (≈ 0.517 µM). Besides, the “MIC (μg/mL) E. coli” value with E. coli is more than 8 µg/mL.

Turning to `CO[C@H]1/C=C/O[C@@]2(C)Oc3c(C)c(O)c4c(=O)c(c5sc6cc(N7CCC(N(C)C)CC7)ccc6nc-5c4c3C2=O)NC(=O)/C(C)=C\C=C\[C@H](C)[C@H](O)[C@@H](C)[C@@H](O)[C@@H](C)[C@H](OC(C)=O)[C@@H]1C` [Compound 69, 5′-[4-N,N-dimethylamino-1-piperidinyl]benzthiazinorifamycin], in the experiment on S. aureus, the “MIC (μg/mL) S. aureus” value was 0.015 µg/mL (≈ 0.0162 µM). Besides, in the experiment with S. pneumo., the “MIC (μg/mL) S. pneumo.” value is 0.00025 µg/mL (≈ 0.00027 µM). For the same compound, the “MIC (μg/mL) E. faecalis” value in the experiment with E. faecalis stood at 0.5 µg/mL (≈ 0.539 µM). Further, the “MIC (μg/mL) H. flu” value against H. flu turned out to be 0.5 µg/mL (≈ 0.539 µM). In addition, in the experiment on E. coli, the “MIC (μg/mL) E. coli” value came out at 4 µg/mL (≈ 4.31 µM).

Take `CO[C@H]1/C=C/O[C@@]2(C)Oc3c(C)c(O)c4c(=O)c(c5oc6cc(N7CCC(C)(N(C)C)CC7)cc(O)c6nc-5c4c3C2=O)NC(=O)/C(C)=C\C=C\[C@H](C)[C@H](O)[C@@H](C)[C@@H](O)[C@@H](C)[C@H](OC(C)=O)[C@@H]1C` [Compound 71, 3′-hydroxy-5′-[4-methyl-4-N,N-dimethylamino-1-piperidinyl]benzoxazinorifamycin]: the “MIC (μg/mL) S. aureus” value against S. aureus is 0.008 µg/mL (≈ 0.0085 µM). Moreover, in the experiment on S. pneumo., the “MIC (μg/mL) S. pneumo.” value worked out at 0.00012 µg/mL (≈ 0.000128 µM). Further, in the experiment with E. faecalis, the “MIC (μg/mL) E. faecalis” value was determined as 0.25 µg/mL (≈ 0.266 µM). The “MIC (μg/mL) H. flu” value with H. flu stood at 0.5 µg/mL (≈ 0.531 µM). Also, the “MIC (μg/mL) E. coli” value in the experiment with E. coli is 4 µg/mL (≈ 4.25 µM).

With `CO[C@H]1/C=C/O[C@@]2(C)Oc3c(C)c(O)c4c(=O)c(c5oc6cc(N7CCC(C)(NC(C)=O)CC7)cc(O)c6nc-5c4c3C2=O)NC(=O)/C(C)=C\C=C\[C@H](C)[C@H](O)[C@@H](C)[C@@H](O)[C@@H](C)[C@H](OC(C)=O)[C@@H]1C` [Compound 72, 3′-hydroxy-5′-[4-methyl-4-acetylamino-1-piperidinyl]benzoxazinorifamycin], in the experiment on S. aureus, the “MIC (μg/mL) S. aureus” value amounted to 0.008 µg/mL (≈ 0.00838 µM). Moreover, the “MIC (μg/mL) S. pneumo.” value against S. pneumo. is 0.00025 µg/mL (≈ 0.000262 µM). Also, the “MIC (μg/mL) E. faecalis” value against E. faecalis was 2 µg/mL (≈ 2.09 µM). Also, the “MIC (μg/mL) H. flu” value against H. flu is 0.5 µg/mL (≈ 0.524 µM). In addition, the “MIC (μg/mL) E. coli” value with E. coli was more than 8 µg/mL.
